Key:
[1] = test system: 5-FU-resistant PANC-1 cells; assay: Clonability assay in 5-FU-resistant PANC-1 cells; assay type: cell-based; conditions: 8.35 μM 19-S or 6.5 μM 5-FU, 21 days
Protocol: 500 PANC- 1 cells resistant to 6.5 µM 5-FU cells were seeded in 6 well plates by triplicate in media
After 21 days, cells were washed with PBS, fixed with Methanol for 20 minutes and stained with
1% Crystal violet (in PBS) for 20 minutes. After extensive washing, plates were let dry and colonies
were counted and plotted in GraphPad Prism 9. Images were taken using scanner Epson Perfection

[2] = test system: PANC-1 and MIA PaCa-2 cells; assay: Cell count assay for acquired resistance; assay type: cell-based; conditions: constant 10 μM
Protocol: 500000 PANC-1 and MiaPaCa- 2 cells were plated in 75 cm2 flasks in DMEM high glucose
supplemented with 5 U/ml Penicillin/Streptomycin and 10% fetal bovine serum. Cells were treated with
Once a week for 7 weeks, cells were trypsinized with Trypsin-
EDTA 0.05% (Gibco) and counted using Cellometer Auto T4 (Nexcelom Bioscience). 500000 cells were
re-seeded in a new 75 cm2 flask in the appropriate treatment. Data was plotted in GraphPad Prism 9.

[3] = test system: H1048 small cell lung cancer cell line; assay: Viability assay, H1048; assay type: cell-based; conditions: Homo sapiens, NCI-H1048; Supplemental Figure 1B
Protocol: H1048, Colo320, H630 and CCD18Co cells were purchased from ATCC. Cells were grown in RPMI
1640 supplemented with 5 U/ml Penicillin/Streptomycin and 10% fetal bovine serum at a constant
temperature of 37 °C in a humidified atmosphere of 5% carbon dioxide and were routinely tested for
mycoplasma contamination.
For GI50 determination, 3000 Colo320, H630 and CCD18Co cells per well were plated in 96 well plates
hours, cell viability was assessed by reduction of MTT (3-(4,5- dimethylthiazol-2-yl)-2,5-diphenyltetrazolium bromide) using MTT Reagent (Invitrogen, Cat # M6494), following manufacturer’s
recommendations. Chemiluminescent output (integration time 1000 ms) was measured on a
SpectraMax M3 (Molecular Devices). Data was plotted in GraphPad Prism 9 to determine GI50

TYMS [4] = assay: Immunoblot of TYMS levels in treated PANC-1 cells; assay type: cell-based; conditions: PANC-1, 72 hours, Figure 1D
Protocol: (§1) Cells were harvested after 72 hours, and cell pellets were stored at –80°C. […] After 72 hours, cell viability was assessed by reduction of MTS using Cell Titer 96 R Aqueous One Solution Cell Proliferation Assay Kit (Promega, catalog G8081), following manufacturer’s recommendations. […] was measured on a SpectraMax M3 (Molecular Devices). Data were plotted in GraphPad Prism 9 to determine GI50 concentration. Chemical synthesis details, including characterization of each compound, can be found in the Supplemental section associated with this publication.
A total of 20 μg of total protein lysate was loaded per lane of 10% Tris Glycine Gel (Invitrogen, catalog EC6076). SDS-PAGE was run at 150 V for 1.5 to 2 hours. Proteins were transferred to nitrocellulose membranes using iBlot (Invitrogen, catalog IB3011002). Membranes were blocked with 5% nonfat dry milk (Lab Scientific, catalog M0841) in Tris-buffered saline supplemented with Tween 20 (0.1%) (TBS-T) for 45–60 minutes at room temperature (RT). […] Signal was detected using West Pico Plus chemiluminescence substrate (Thermo Fisher Scientific, catalog 34580) following manufacturer’s recommendations. […] For protein-level quantification relative to loading control, densitometric analysis was performed by ImageJ software (NIH).

in vivo [5] = conditions: FVB/129/Sv, mouse, ip
Protocol: Animals received 4 treatment cycles and were then monitored once off treatment until survival endpoint.
Maximum tolerated dose (MTD)
(§3) experiment) or 5, 10, 25 or 50 mg/kg of 5-FU daily during 5 consecutive days. After 3 treatment cycles,
(§4) animals rested (no treatment) for one more week before euthanasia. Body weight and physical status
(§5) of all mice were closely monitored. Tissues were collected and fixed in alcoholic formalin to test for
(§6) daily during 5 consecutive days for 3 weeks. After 3 treatment cycles, animals rested (no treatment) for
(§7) one more week before euthanasia. Body weight and physical status of all mice were closely monitored.
(§8) Tissues were collected and fixed in alcoholic formalin to test for toxicity.
(§9) Specimens were fixed in alcoholic formalin for 48h and then transferred to 70% ethanol, processed and
(§10) embedded in paraffin. Tissues were serially sectioned and stained by conventional H&E. Slides were

BON cells = assay: MTS viability assay, BON; assay type: cell-based; conditions: 72-hour drug incubation, Figure 1C
TYMS [6] = assay: TYMS levels in Luc-PANC-1 xenograft tumors (immunoblot); assay type: in vivo, mouse; conditions: 25 mg/kg daily IP, 5 consecutive days
Text: (§2) In the subcutaneous tumor model, the resulting Luc-PANC-1 xenograft tumors were monitored by direct tumor measurements and bioluminescence photon flux that is proportional to tumor size. […] Treatment was initiated 30 days after Luc-PANC-1 cell line subcutaneous injections (5 × 10^6 cells), when tumors reached 100 mm^3 in volume, generating a bioluminescence photon flux of 3 × 10^9 to 4 × 10^9 photons/s. […] Tumors from both treatment groups were excised, and the tumor mass was weighed (Figure 2E).
A small piece of frozen tumor (stored at -80 °C) in RIPA buffer with phosphatase and proteinase inhibitors (Santa Cruz, sc-24948) was homogenized using Omni general laboratory homogenizer (GLH). Tumor was then centrifuged for 20 min at 12000 rpm and 4 °C to obtain whole -cell lysates that was transferred to a new tube. Protein concentration was measured using Bradford Assay and 20 µg of total protein lysate was loaded as described in Methods.
Tritium based TYMS catalytic activity assay
The catalytic activity of TYMS was determined by measuring the release of [3H] from [5-3H]dUMP (ViTrax, Cat # VT122) resulting from the conversion of dUMP to dTMP as previously described (2, 3).
The reaction conditions were optimized to determine the amount of TYMS protein needed to establish […]

MIA PaCa-2 cells = assay: MTS viability assay, MIA PaCa-2; assay type: cell-based; conditions: Homo sapiens, 72-hour drug incubation, Figure 1C
Protocol: as §1

in vivo [7] = conditions: NSG, mouse, ip
Protocol: Maximum tolerated dose (MTD)
as §3, §4, §5, §6, §7, §8, §9, §10

PANC-1 cells = assay: MTS viability assay, PANC-1; assay type: cell-based; conditions: Homo sapiens, 72-hour drug incubation, Figure 1C
CM cells = assay: MTS viability assay, CM; assay type: cell-based; conditions: 72-hour drug incubation, Figure 1C
[8] = test system: Luc-PANC-1 xenograft tumors; assay: Luc-PANC-1 subcutaneous xenograft tumor model; assay type: in vivo; conditions: 19-S vs 5-FU comparison, Supplemental Figure 6
Text: as §2
Luc-PANC-1 (5 × 10^6) and Luc-CM (0.5 × 10^6) cells were resuspended in 200 μL of PBS and injected subcutaneously or IP, respectively, into 6- to 8-week-old NSG mice. Tumor-bearing mice were imaged using Xenogen IVIS Lumina Bioluminescence Imaging System (PerkinElmer) every week after cell injection. […] For all animals, body weight was recorded weekly, and Luc-PANC-1 tumor volume was measured weekly with a caliper. For scheduled sacrifice experiments, animals were euthanized after 4 weeks of treatment. […] Tumor volume was calculated as volume = 0.52(length × width^2).
Prior to bioluminescence imaging the region where tumors were located was shaved. […] Following the injection of the D-luciferin substrate mice, were imaged using the Xenogen IVIS Lumina Bioluminescence Imaging System (PerkinElmer). The peak of luciferase photon flux was recorded 6 minutes after injection of the D-luciferin substrate. The total photon flux was analyzed and restricted to tumor region of interest using Living Image v2.60.1 software (Imaging Systems).

In the case of `O=c1[nH]cc(F)c(=O)[nH]1` [Compound 5-FU, 5-fluorouracil], the Colony formation [1] is reported as “colonies were observed”, the “Effect on cell counts after 1 week” value [2] is reported as “potent cytotoxic effect” and the “Viable cells after 4 weeks of treatment” value [2] is reported as “remained detectible”. For the same compound, the GI50 [3] was 3.63 µM, the “TYMS protein expression after treatment” value (TYMS [4]) was 3 fold and the MTD at 3 treatment cycles (5 consecutive days of daily dosing each) (in vivo [5]) was 25 mg/kg. The GI50 (BON cells) was 7.47 µM, the IC50 (BON cells) was 7.1 µM and the “TYMS protein level in tumors” value (TYMS [6]) was “higher than TYMS protein level in vehicle-treated controls”. It also gave a GI50 (MIA PaCa-2 cells) of 20.4 µM, an MTD at 3 treatment cycles (5 consecutive days of daily dosing each) (in vivo [7]) of 25 mg/kg and a GI50 (PANC-1 cells) of 15.7 µM. The GI50 (CM cells) was 14.8 µM and the “Tumor volume compared with control mice” value [8] was “significant reduction in tumor volume”.
